Assay results published in the CheMixHub viscosity set.
± gives the uncertainty stated by the source.

Assay: xn = mol fraction of the nth substance listed

CCNc1ccccc1 + CCCCCCO
viscosity [mPa·s], 101 kPa
Conditions | 303.15 K | 308.15 K | 313.15 K
x1 = 0.0815 | 3.513 ± 0.7 | 3.35 ± 0.67 | 3.189 ± 0.64
x1 = 0.1812 | 3.243 ± 0.65 | 3.069 ± 0.61 | 2.9 ± 0.58
x1 = 0.2501 | 3.07 ± 0.61 | 2.889 ± 0.58 | 2.719 ± 0.54
x1 = 0.3121 | 2.922 ± 0.58 | 2.736 ± 0.55 | 2.565 ± 0.51
x1 = 0.3956 | 2.737 ± 0.55 | 2.546 ± 0.51 | 2.374 ± 0.48
x1 = 0.4652 | 2.594 ± 0.52 | 2.399 ± 0.48 | 2.227 ± 0.45
x1 = 0.5285 | 2.47 ± 0.49 | 2.273 ± 0.45 | 2.101 ± 0.42
x1 = 0.6124 | 2.318 ± 0.46 | 2.119 ± 0.42 | 1.947 ± 0.39
x1 = 0.6758 | 2.21 ± 0.44 | 2.01 ± 0.4 | 1.84 ± 0.37
x1 = 0.7415 | 2.105 ± 0.42 | 1.904 ± 0.38 | 1.735 ± 0.35
x1 = 0.8012 | 2.014 ± 0.4 | 1.813 ± 0.36 | 1.647 ± 0.33
x1 = 0.8652 | 1.922 ± 0.38 | 1.722 ± 0.34 | 1.557 ± 0.31
x1 = 0.9114 | 1.857 ± 0.37 | 1.659 ± 0.33 | 1.496 ± 0.3

ClCCl + CCCCN
viscosity [mPa·s], 101 kPa
Conditions | x2 = 0.102 | x2 = 0.1371 | x2 = 0.2306 | x2 = 0.3081 | x2 = 0.435 | x2 = 0.5159 | x2 = 0.5926 | x2 = 0.6971 | x2 = 0.8192 | x2 = 0.9041
293.15 K | 0.441 ± 0.012 | 0.443 ± 0.013 | 0.448 ± 0.013 | 0.452 ± 0.013 | 0.46 ± 0.013 | 0.466 ± 0.013 | 0.471 ± 0.013 | 0.477 ± 0.013 | 0.486 ± 0.014 | 0.493 ± 0.014
298.15 K | 0.418 ± 0.012 | 0.421 ± 0.012 | 0.425 ± 0.012 | 0.427 ± 0.012 | 0.434 ± 0.012 | 0.439 ± 0.012 | 0.443 ± 0.013 | 0.446 ± 0.013 | 0.454 ± 0.013 | 0.457 ± 0.013
303.15 K | 0.401 ± 0.012 | 0.403 ± 0.012 | 0.406 ± 0.012 | 0.409 ± 0.012 | 0.414 ± 0.012 | 0.417 ± 0.012 | 0.42 ± 0.012 | 0.424 ± 0.012 | 0.429 ± 0.012 | 0.433 ± 0.012
308.15 K | 0.385 ± 0.011 | 0.386 ± 0.011 | 0.39 ± 0.011 | 0.392 ± 0.011 | 0.395 ± 0.011 | 0.397 ± 0.011 | 0.4 ± 0.012 | 0.402 ± 0.012 | 0.405 ± 0.012 | 0.408 ± 0.012

ClCCl + COC(C)=O
298.15 K, 101 kPa
Conditions | viscosity [mPa·s]
x1 = 0.1033 | 0.374 ± 0.011
x1 = 0.1903 | 0.383 ± 0.011
x1 = 0.2995 | 0.391 ± 0.011
x1 = 0.4016 | 0.398 ± 0.011
x1 = 0.5007 | 0.404 ± 0.011
x1 = 0.5991 | 0.41 ± 0.011
x1 = 0.7017 | 0.414 ± 0.011
x1 = 0.8034 | 0.416 ± 0.011
x1 = 0.9104 | 0.418 ± 0.011

C1CCC2=[NH+]CCCN2CC1.c1c[n-]cn1 + CCO
298.15 K, 100 kPa
Conditions | viscosity [mPa·s]
x1 = 0.0998 | 1.95 ± 0.081
x1 = 0.1996 | 3.268 ± 0.14
x1 = 0.2995 | 5.15 ± 0.21
x1 = 0.3994 | 7.752 ± 0.32
x1 = 0.4994 | 10.78 ± 0.45
x1 = 0.5994 | 14.23 ± 0.6
x1 = 0.6995 | 19.14 ± 0.81
x1 = 0.7996 | 23.96 ± 1
x1 = 0.8998 | 28.78 ± 1.2

CCOC=O + O=C1CCCO1
298.15 K, 101.33 kPa
Conditions | viscosity [mPa·s]
x1 = 0.0501 | 1.571 ± 0.012
x1 = 0.0994 | 1.446 ± 0.011
x1 = 0.1504 | 1.333 ± 0.01
x1 = 0.2017 | 1.23 ± 0.01
x1 = 0.2492 | 1.143 ± 0.009
x1 = 0.3001 | 1.057 ± 0.008
x1 = 0.4017 | 0.895 ± 0.007
x1 = 0.4509 | 0.845 ± 0.007
x1 = 0.503 | 0.783 ± 0.007
x1 = 0.5488 | 0.732 ± 0.006
x1 = 0.6028 | 0.677 ± 0.006
x1 = 0.7138 | 0.576 ± 0.005
x1 = 0.7502 | 0.547 ± 0.005
x1 = 0.7894 | 0.51 ± 0.005
x1 = 0.8503 | 0.47 ± 0.004
x1 = 0.9 | 0.439 ± 0.004
x1 = 0.9501 | 0.412 ± 0.004

CC(=O)O + CS(C)=O
viscosity [mPa·s]
Conditions | 298.15 K | 303.15 K | 308.15 K | 313.15 K | 318.15 K | 323.15 K
101 kPa, x2 = 0.2 | 2.359 ± 0.048 | – | – | – | – | –
101 kPa, x2 = 0.4 | 2.806 ± 0.034 | – | – | – | – | –
101 kPa, x2 = 0.6 | 2.525 ± 0.025 | – | – | – | – | –
101 kPa, x2 = 0.8 | 2.231 ± 0.033 | – | – | – | – | –
101.33 kPa, x1 = 0.0999 | – | 1.891 ± 0.044 | 1.728 ± 0.04 | 1.588 ± 0.037 | 1.463 ± 0.035 | 1.353 ± 0.032
101.33 kPa, x1 = 0.199 | – | 1.975 ± 0.046 | 1.803 ± 0.042 | 1.655 ± 0.039 | 1.525 ± 0.036 | 1.411 ± 0.033
101.33 kPa, x1 = 0.2973 | – | 2.082 ± 0.048 | 1.898 ± 0.044 | 1.738 ± 0.04 | 1.605 ± 0.038 | 1.482 ± 0.035
101.33 kPa, x1 = 0.4013 | – | 2.265 ± 0.052 | 2.06 ± 0.047 | 1.884 ± 0.044 | 1.732 ± 0.04 | 1.59 ± 0.037
101.33 kPa, x1 = 0.5005 | – | 2.383 ± 0.054 | 2.165 ± 0.05 | 1.975 ± 0.046 | 1.809 ± 0.042 | 1.664 ± 0.039
101.33 kPa, x1 = 0.5997 | – | 2.46 ± 0.056 | 2.223 ± 0.051 | 2.024 ± 0.047 | 1.848 ± 0.043 | 1.695 ± 0.04
101.33 kPa, x1 = 0.6966 | – | 2.374 ± 0.054 | 2.148 ± 0.049 | 1.946 ± 0.045 | 1.78 ± 0.041 | 1.628 ± 0.038
101.33 kPa, x1 = 0.8068 | – | 2.05 ± 0.047 | 1.857 ± 0.043 | 1.694 ± 0.04 | 1.549 ± 0.037 | 1.425 ± 0.034
101.33 kPa, x1 = 0.9006 | – | 1.601 ± 0.038 | 1.464 ± 0.035 | 1.345 ± 0.032 | 1.241 ± 0.03 | 1.149 ± 0.028
101.33 kPa, x2 = 0.0978 | 1.755 ± 0.045 | – | 1.458 ± 0.038 | – | 1.229 ± 0.032 | –
101.33 kPa, x2 = 0.1997 | 2.299 ± 0.06 | – | 1.876 ± 0.049 | – | 1.552 ± 0.041 | –
101.33 kPa, x2 = 0.2991 | 2.631 ± 0.068 | – | 2.142 ± 0.056 | – | 1.762 ± 0.046 | –
101.33 kPa, x2 = 0.4069 | 2.728 ± 0.071 | – | 2.228 ± 0.058 | – | 1.84 ± 0.048 | –
101.33 kPa, x2 = 0.5247 | 2.661 ± 0.069 | – | 2.17 ± 0.056 | – | 1.784 ± 0.047 | –
101.33 kPa, x2 = 0.6036 | 2.465 ± 0.064 | – | 2.034 ± 0.053 | – | 1.694 ± 0.044 | –
101.33 kPa, x2 = 0.7038 | 2.303 ± 0.06 | – | 1.91 ± 0.05 | – | 1.591 ± 0.041 | –
101.33 kPa, x2 = 0.804 | 2.178 ± 0.057 | – | 1.804 ± 0.047 | – | 1.507 ± 0.039 | –
101.33 kPa, x2 = 0.903 | 2.081 ± 0.054 | – | 1.733 ± 0.045 | – | 1.443 ± 0.038 | –

ClCCl + CC(C)O
298.15 K, 101 kPa
Conditions | viscosity [mPa·s]
x2 = 0.05 | 0.425 ± 0.006
x2 = 0.0992 | 0.435 ± 0.006
x2 = 0.1 | 0.433 ± 0.006
x2 = 0.15 | 0.444 ± 0.006
x2 = 0.2 | 0.458 ± 0.006
x2 = 0.2021 | 0.457 ± 0.006
x2 = 0.25 | 0.474 ± 0.006
x2 = 0.299 | 0.491 ± 0.006
x2 = 0.3 | 0.494 ± 0.006
x2 = 0.35 | 0.518 ± 0.007
x2 = 0.3974 | 0.548 ± 0.006
x2 = 0.4 | 0.547 ± 0.007
x2 = 0.45 | 0.583 ± 0.007
x2 = 0.5 | 0.626 ± 0.007
x2 = 0.55 | 0.679 ± 0.007
x2 = 0.552 | 0.68 ± 0.007
x2 = 0.5957 | 0.74 ± 0.007
x2 = 0.6 | 0.744 ± 0.008
x2 = 0.65 | 0.823 ± 0.008
x2 = 0.6514 | 0.825 ± 0.008
x2 = 0.7 | 0.917 ± 0.009
x2 = 0.75 | 1.031 ± 0.009
x2 = 0.8 | 1.167 ± 0.01
x2 = 0.8003 | 1.16 ± 0.009
x2 = 0.85 | 1.327 ± 0.011
x2 = 0.8515 | 1.321 ± 0.01
x2 = 0.897 | 1.515 ± 0.012
x2 = 0.9 | 1.516 ± 0.012
x2 = 0.924 | 1.619 ± 0.012
x2 = 0.9482 | 1.742 ± 0.013
x2 = 0.95 | 1.738 ± 0.014
x2 = 0.975 | 1.912 ± 0.014
